Data taken from PubChem BioAssay AID602267 (Broad Institute, 2012).
Activity calls are given as the source filed them.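 Rule for the calls: active = signal falls with dose and the fitted half-maximal concentration is at or below twice the top valid tested dose; inconclusive = flat curve with 30 to 70% inhibition, or poor fit; inactive = wrong direction, flat within 30%, or potency beyond limit.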

The compounds below were run against Golgi-associated PDZ and coiled-coil motif-containing protein (Homo sapiens) (UniProt Q9HD26) (assay: CAL PDZ domain peptide-binding inhibitors, dose response, biochemical, fluorescence polarization, untagged CAL PDZ, cherry-pick (AID 602267)). Details: purified CAL PDZ, TMR-peptide fluorescence polarization, 1 h.

| SMILES | AC50 |
| --- | --- |
| CCOc1ccc2c(c1)C(NC(C)=O)C(=O)N2CCN1CCOCC1 (centres undefined) | > 100 µM (inactive) |
| O=C(O)CSc1cc(NS(=O)(=O)c2ccc(Cl)cc2)c2ccccc2c1O | 32.9 µM |

Same assay, conditions: purified CAL PDZ, TMR-peptide fluorescence polarization, 1 h; at 50 µM (top of the series)

| SMILES | activity change, negative = inhibition |
| --- | --- |
| COC(=O)C1CCN(C(=O)/C(C)=C\c2ccccc2)CC1 | inactive |
| O=C(Nc1ccccc1Cl)Nc1cccnc1Cl | inactive |
| N#Cc1ccc(CC(=O)c2ccccc2)[nH]c1=O | inactive |
| CCOC(=O)C1CCN(C(=O)C2CC(=O)N(c3ccc4c(c3)OCCO4)C2)CC1 (centres undefined) | inactive |
| Cc1ccc2nc(NS(C)(=O)=O)sc2c1 | inactive |
| C[C@H](NC(=O)c1ccccc1Cl)C(=O)NCc1cccs1 | inactive |
| O=C(OCc1ccc(Br)cc1)c1cccnc1 | inactive |
| CCOC(=O)N1CCN(Cc2nc3c(c(=O)n(C)c(=O)n3C)n2Cc2cccc(C)c2)CC1 | inactive |
| CN(C)CCNC(=O)COc1cccc2c1OC(C)(C)C2 | inactive |
| Cc1cc(Cl)c(Cl)cc1S(=O)(=O)NCCCn1ccnc1 | inactive |
| C=CCn1c(NC(=O)c2ccco2)nc2ccccc21 | inactive |
| Cc1nn(C)cc1CN(C)C(=O)c1nn2c(c1Br)NC(c1cccs1)CC2C(F)(F)F (centres undefined) | inactive |
| Cc1ccc(NC(=O)N2CCCC2C(=O)NCC2CCCO2)cc1 (centres undefined) | inactive |
| N=c1c(S(=O)(=O)c2ccc(Cl)cc2)cc2c(=O)n3ccccc3nc2n1C1CCCCC1 | inactive |
| CC(=O)N1CCN(c2ccc(NC(=O)C(c3ccccc3)c3ccccc3)cc2)CC1 | inactive |
| CC(=O)Nc1ccc(Nc2ccc3nonc3c2[N+](=O)[O-])cc1 | inactive |
| CC1CCC(NS(=O)(=O)c2ccc3c(c2)n(C)c(=O)c(=O)n3C)CC1 (centres undefined) | inactive |

The remaining lines, values ahead:

| activity change, negative = inhibition | SMILES |
| --- | --- |
| inactive | O=C(COC(=O)c1ccc(Cl)nc1)Nc1ccc(N2CCCCC2)cc1 |
| inactive | C[n+]1ccc(C(=O)Nc2ccccc2Cl)cc1 |
| inactive | COCCN(C(=S)Nc1ccccc1OC)C1CCN(C(C)C)CC1 |
| inactive | O=C(OCC(=O)N1CCc2ccccc2C1)c1cccnc1Cl |
| inactive | Cc1ccc(C(=O)NC(=S)N2CCN(c3cc(C)ccc3C)CC2)cc1 |
| inactive | CN1CCN(c2ccccc2NC(=O)c2ccc(N3CCCC3)c([N+](=O)[O-])c2)CC1 |
| inactive | COc1cc(NC(=O)c2cccs2)ccc1NC(=O)c1ccccc1Cl |
| inactive | CCN(C(=O)CSc1ncccc1C(=O)O)C1CCCCC1 |
| inactive | CCN1C(=O)CS/C1=N\S(=O)(=O)c1ccc(Cl)cc1 |
| inactive | CSc1ccccc1NC(=O)c1ccccc1 |
| inactive | O=C(NCCN1C(=O)S/C(=C\c2ccc(Cl)c(Cl)c2)C1=O)C1COc2ccccc2O1 (centres undefined) |
| inactive | C=CCNC(=O)CC1Nc2c3ccccc3nc(=S)n2C1=O (centres undefined) |
| inactive | CCCSC1=N/C(=C\c2ccc([N+](=O)[O-])o2)C(=O)S1 |
| inactive | CC(=O)c1ccc(S(=O)(=O)N2CCN(c3ccccc3F)CC2)cc1 |
| inactive | CN(C)c1ccc(C(=O)OCC(=O)NC2CCCCCC2)cc1 |
